Among the data in patent US10479784B2, “Substituted pyrazin-2-amines as inhibitors of ATR kinase” (Vertex Pharmaceuticals Incorporated, priority 2008, dated 2019) are Ki values, retold here.

The experiment addresses full-length ATR (Homo sapiens (Human), UniProt Q13535). The experiment is described as follows: ATR Inhibition Assay (radioactive-phosphate incorporation). Particulars: read-out: ATR Ki. The experiment is classed as biochemical. In outline: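 Full-length human ATR (5 nM) was assayed at 25 °C in 50 mM Tris/HCl pH 7.5, 10 mM MgCl2, 1 mM DTT, with 10 μM [γ-33P]ATP and 800 μM peptide, after 10-min compound preincubation. Reactions were stopped after 24 h, captured on phosphocellulose and counted; Ki(app) came from non-linear regression of initial rates.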

full-length ATR, sequence (Q13535 whole entry): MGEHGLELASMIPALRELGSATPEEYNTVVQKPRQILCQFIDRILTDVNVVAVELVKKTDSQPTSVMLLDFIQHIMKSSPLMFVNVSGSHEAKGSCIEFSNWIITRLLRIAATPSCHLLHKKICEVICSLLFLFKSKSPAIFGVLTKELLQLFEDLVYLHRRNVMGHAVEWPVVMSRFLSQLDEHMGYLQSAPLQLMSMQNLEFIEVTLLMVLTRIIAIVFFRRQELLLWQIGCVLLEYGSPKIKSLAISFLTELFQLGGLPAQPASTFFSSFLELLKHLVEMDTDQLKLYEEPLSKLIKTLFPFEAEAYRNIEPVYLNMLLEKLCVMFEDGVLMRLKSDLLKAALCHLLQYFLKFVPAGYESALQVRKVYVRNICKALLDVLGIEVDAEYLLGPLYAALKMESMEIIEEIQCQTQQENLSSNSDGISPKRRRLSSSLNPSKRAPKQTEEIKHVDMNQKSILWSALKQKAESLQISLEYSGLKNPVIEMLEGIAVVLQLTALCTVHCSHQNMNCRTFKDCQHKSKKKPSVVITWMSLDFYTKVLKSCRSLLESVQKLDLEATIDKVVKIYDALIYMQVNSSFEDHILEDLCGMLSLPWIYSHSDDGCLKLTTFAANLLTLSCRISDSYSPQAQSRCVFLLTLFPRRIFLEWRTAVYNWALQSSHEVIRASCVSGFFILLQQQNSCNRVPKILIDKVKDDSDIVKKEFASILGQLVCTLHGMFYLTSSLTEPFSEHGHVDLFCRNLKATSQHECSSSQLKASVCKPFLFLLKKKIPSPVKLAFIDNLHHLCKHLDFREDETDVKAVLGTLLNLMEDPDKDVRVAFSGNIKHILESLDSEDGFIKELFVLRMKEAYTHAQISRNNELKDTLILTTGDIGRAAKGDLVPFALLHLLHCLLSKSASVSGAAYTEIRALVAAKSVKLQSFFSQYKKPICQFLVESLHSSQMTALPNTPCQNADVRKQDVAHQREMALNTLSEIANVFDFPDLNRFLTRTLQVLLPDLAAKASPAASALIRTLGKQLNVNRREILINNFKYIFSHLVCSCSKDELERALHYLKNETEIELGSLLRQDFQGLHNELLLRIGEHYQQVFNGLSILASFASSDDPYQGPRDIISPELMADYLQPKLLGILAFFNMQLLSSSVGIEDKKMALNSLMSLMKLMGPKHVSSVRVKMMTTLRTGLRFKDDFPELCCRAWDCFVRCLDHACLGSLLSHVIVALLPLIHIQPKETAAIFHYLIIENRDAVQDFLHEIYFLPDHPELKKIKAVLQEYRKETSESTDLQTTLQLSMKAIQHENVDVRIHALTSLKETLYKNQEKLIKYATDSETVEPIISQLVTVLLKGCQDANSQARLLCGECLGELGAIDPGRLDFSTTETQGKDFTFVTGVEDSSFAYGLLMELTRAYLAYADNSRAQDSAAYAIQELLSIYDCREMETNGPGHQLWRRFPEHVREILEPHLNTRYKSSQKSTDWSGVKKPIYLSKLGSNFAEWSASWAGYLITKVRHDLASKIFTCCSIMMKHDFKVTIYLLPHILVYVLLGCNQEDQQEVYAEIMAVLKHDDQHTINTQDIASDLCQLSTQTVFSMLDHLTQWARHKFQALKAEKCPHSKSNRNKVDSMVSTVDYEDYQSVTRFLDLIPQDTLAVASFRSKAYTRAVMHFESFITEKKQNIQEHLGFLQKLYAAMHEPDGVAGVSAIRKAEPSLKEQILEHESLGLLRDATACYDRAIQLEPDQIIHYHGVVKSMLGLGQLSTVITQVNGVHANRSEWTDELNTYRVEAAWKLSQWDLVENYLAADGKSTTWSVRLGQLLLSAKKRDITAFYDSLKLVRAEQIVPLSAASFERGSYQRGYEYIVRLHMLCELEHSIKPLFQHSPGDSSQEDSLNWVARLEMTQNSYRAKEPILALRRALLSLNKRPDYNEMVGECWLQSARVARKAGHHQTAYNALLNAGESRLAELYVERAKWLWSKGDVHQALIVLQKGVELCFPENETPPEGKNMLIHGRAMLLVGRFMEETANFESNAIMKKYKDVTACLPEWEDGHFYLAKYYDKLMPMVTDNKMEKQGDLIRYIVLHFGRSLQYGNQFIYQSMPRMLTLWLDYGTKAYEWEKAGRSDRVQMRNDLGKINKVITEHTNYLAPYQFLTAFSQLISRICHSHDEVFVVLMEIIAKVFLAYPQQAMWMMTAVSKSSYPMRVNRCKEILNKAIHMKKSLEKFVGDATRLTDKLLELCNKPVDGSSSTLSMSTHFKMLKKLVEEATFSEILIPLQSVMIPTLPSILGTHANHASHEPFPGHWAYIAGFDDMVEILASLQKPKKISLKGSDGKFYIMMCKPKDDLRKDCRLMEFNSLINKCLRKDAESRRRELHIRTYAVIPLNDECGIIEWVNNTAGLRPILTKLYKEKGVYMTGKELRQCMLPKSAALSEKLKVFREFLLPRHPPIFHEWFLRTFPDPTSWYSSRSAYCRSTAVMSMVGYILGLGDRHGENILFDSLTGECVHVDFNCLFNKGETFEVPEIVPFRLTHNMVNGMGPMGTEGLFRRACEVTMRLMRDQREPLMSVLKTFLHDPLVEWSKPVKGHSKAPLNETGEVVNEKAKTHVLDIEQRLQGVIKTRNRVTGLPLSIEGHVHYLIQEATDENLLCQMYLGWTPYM

Regarding `CN(C)C(=O)c1ccc(-c2cnc(N)c(-c3nnc(-c4cccc(O)c4)o3)n2)cc1` [IA-85, 4-[5-amino-6-[5-(3-hydroxyphenyl)-1,3,4-oxadiazol-2-yl]pyrazin-2-yl]-N,N-dimethyl-benzamide], the Ki lay in the range of 10 to 100 nM.

`Nc1ncc(-c2ccc(C(=O)N3CCCOCC3)cc2)nc1-c1nnc(-c2ccccc2)o1` [IA-15]: the Ki is no more than 10 nM.

`Nc1ncc(-c2ccnc(N3CCNCC3)c2)nc1-c1nnc(-c2ccccc2)o1` [IA-271, 3-(5-phenyl-1,3,4-oxadiazol-2-yl)-5-(2-piperazin-1-yl-4-pyridyl)pyrazin-2-amine]: the Ki was in the range of 100 to 5000 nM.

Regarding `COc1ccc(-c2nnc(-c3nc(-c4ccc(C(=O)N(C)C)cc4)cnc3N)o2)cc1` [IA-157, 4-[5-amino-6-[5-(4-methoxyphenyl)-1,3,4-oxadiazol-2-yl]pyrazin-2-yl]-N,N-dimethyl-benzamide], the Ki was in the range of 10 to 100 nM.

Regarding `Nc1ncc(-c2ccc(C(=O)N3CCOCC3)cc2)nc1-c1nnc(-c2ccccc2)o1` [IA-13], the Ki fell in the range of 10 to 100 nM.

Turning to `CCCNCc1ccc(-c2cc(-c3nc(-c4ccc(S(=O)(=O)C(C)C)cc4)cnc3N)on2)cc1` [IIA-6, 5-(4-(isopropylsulfonyl)phenyl)-3-(3-(4-((propylamino)methyl)phenyl)isoxazol-5-yl)pyrazin-2-amine], the Ki was no more than 10 nM.

As for `CC(C)S(=O)(=O)c1ccc(-c2cnc(N)c(-c3nnc(-c4cccc([C@@H](C)N)c4)o3)n2)cc1` [IA-80, 3-[5-[3-[(1R)-1-aminoethyl]phenyl]-1,3,4-oxadiazol-2-yl]-5-(4-isopropylsulfonylphenyl)pyrazin-2-amine], the inhibition constant Ki was no more than 10 nM.

Regarding `Nc1ncc(-c2ccnc(N3CCNCC3)c2)nc1-c1nc2ccccc2[nH]1` [Compound I-136, 3-(1H-benzo[d]imidazol-2-yl)-5-(2-(piperazin-1-yl)pyridin-4-yl)pyrazin-2-amine], the inhibition constant Ki was 100 to 5000 nM.

For the molecule `Cc1ccccc1-c1cnc(N)c(C(=O)Nc2ccccc2)n1` [Compound I-11, 3-amino-N-phenyl-6-o-tolylpyrazine-2-carboxamide], the Ki lay within 100 to 5000 nM.

Regarding `CNCc1ccc(NC(=O)c2nc(-c3ccc(S(C)(=O)=O)cc3)cnc2N)cc1` [VII-10], the Ki is 100 to 5000 nM.

Take `CC(C)S(=O)(=O)c1ccc(-c2cnc(N)c(-c3nnc(-c4ccc(CN)cc4)o3)n2)cc1` [IA-222, 3-[5-[4-(aminomethyl)phenyl]-1,3,4-oxadiazol-2-yl]-5-(4-isopropylsulfonylphenyl)pyrazin-2-amine]: the Ki is no more than 10 nM.

On to `CNC(C)c1ccc(-c2nnc(-c3nc(-c4ccc(S(=O)(=O)C(C)C)cc4)cnc3N)o2)cc1` (centres unmarked) [IA-212, 5-(4-isopropylsulfonylphenyl)-3-[5-[4-[1-(methylamino)ethyl]phenyl]-1,3,4-oxadiazol-2-yl]pyrazin-2-amine], for which the Ki was no more than 10 nM.

For the molecule `CC(C)S(=O)(=O)c1ccc(-c2cnc(N)c(-c3nnc(-c4ccc(C5CCCN5)cc4)o3)n2)cc1` (centres unmarked) [IA-102, 5-(4-isopropylsulfonylphenyl)-3-[5-(4-pyrrolidin-2-ylphenyl)-1,3,4-oxadiazol-2-yl]pyrazin-2-amine], the Ki is no more than 10 nM.

As for `Nc1ncc(-c2cccnc2)nc1-c1nnc(-c2ccccc2)[nH]1` [Compound I-138, 3-(5-phenyl-4H-1,2,4-triazol-3-yl)-5-(pyridin-3-yl)pyrazin-2-amine], the inhibition constant (Ki) is 10 to 100 nM.

For `NC(=O)c1ccc(-c2cnc(N)c(-c3nnc(-c4ccccc4)o3)n2)cc1` [IA-218, 4-[5-amino-6-(5-phenyl-1,3,4-oxadiazol-2-yl)pyrazin-2-yl]benzamide], the inhibitory constant (Ki) was 10 to 100 nM.

Take `Nc1ncc(-c2cccnc2)nc1C(=O)Nc1cccn2ncnc12` [Compound V-14]: the Ki was in the range of 100 to 5000 nM.

As for `COCCNCc1ccc(-c2nnc(-c3nc(-c4ccc(S(=O)(=O)C(C)C)cc4)cnc3N)o2)cc1` [IA-119, 5-(4-isopropylsulfonylphenyl)-3-[5-[4-[(2-methoxyethylamino)methyl]phenyl]-1,3,4-oxadiazol-2-yl]pyrazin-2-amine], the Ki is no more than 10 nM.

As for `Cc1cccc(-c2nnc(-c3nc(-c4ccc(C(=O)N(C)C)cc4)cnc3N)o2)c1` [IA-237, 4-[5-amino-6-[5-(m-tolyl)-1,3,4-oxadiazol-2-yl]pyrazin-2-yl]-N,N-dimethyl-benzamide], the inhibition constant Ki fell in the range of 10 to 100 nM.

With `CS(=O)(=O)c1ccc(-c2cnc(N)c(C(=O)Nc3ccccn3)n2)cc1` [VII-6], the inhibition constant Ki fell in the range of 10 to 100 nM.

For `Nc1ncc(-c2cccnc2)nc1C(=O)Nc1cccc(F)c1` [Compound I-103, 3-amino-N-(3-fluorophenyl)-6-(pyridin-3-yl)pyrazine-2-carboxamide], the inhibition constant (Ki) is 10 to 100 nM.

With `CN(C)C(=O)c1ccc(-c2cnc(N)c(-c3nnc(-c4ccccc4OCCCO)o3)n2)cc1` [IA-284, 4-[5-amino-6-[5-[2-(3-hydroxypropoxy)phenyl]-1,3,4-oxadiazol-2-yl]pyrazin-2-yl]-N,N-dimethyl-benzamide], the Ki is no more than 10 nM.

In the case of `Nc1ncc(-c2cccc(C(=O)NCCN3CCCCC3)c2)nc1C(=O)Nc1ccccc1` [Compound I-61, 3-amino-N-phenyl-6-(3-(2-(piperidin-1-yl)ethylcarbamoyl)phenyl) pyrazine-2-carboxamide], the Ki lay in the range of 100 to 5000 nM.

In the case of `Nc1ncc(-c2ccccc2F)nc1C(=O)Nc1ccccc1` [Compound I-14, 3-amino-6-(2-fluorophenyl)-N-phenylpyrazine-2-carboxamide], the inhibition constant (Ki) is 100 to 5000 nM.

For the molecule `CS(=O)(=O)c1ccc(-c2cnc(N)c(-c3noc(-c4ccccc4)n3)n2)cc1` [Compound I-144, 5-(4-(methylsulfonyl)phenyl)-3-(5-phenyl-1,2,4-oxadiazol-3-yl)pyrazin-2-amine], the Ki was no more than 10 nM.

Consider `CNCc1ccc(-c2nnc(-c3nc(-c4ccc(S(=O)(=O)C(C)C)c(Cl)c4)cnc3N)o2)c(F)c1` [IA-329, 5-(3-chloro-4-isopropylsulfonyl-phenyl)-3-[5-[2-fluoro-4-(methylaminomethyl)phenyl]-1,3,4-oxadiazol-2-yl]pyrazin-2-amine], for which the Ki is no more than 10 nM.

With `CC(=O)OCc1ccc(-c2nnc(-c3nc(-c4ccc(C(=O)N(C)C)cc4)cnc3N)o2)cc1` [IA-131, [4-[5-[3-amino-6-[4-(dimethylcarbamoyl)phenyl]pyrazin-2-yl]-1,3,4-oxadiazol-2-yl]phenyl]methyl acetate], the Ki was 10 to 100 nM.

Consider `CC(C)S(=O)(=O)c1ccccc1-c1cnc(N)c(-c2nnc(-c3ccccc3)o2)n1` [IA-121, 5-(2-isopropylsulfonylphenyl)-3-(5-phenyl-1,3,4-oxadiazol-2-yl)pyrazin-2-amine], for which the Ki is 100 to 5000 nM.

Consider `Nc1ncc(-c2cccc(C(=O)N3CCOCC3)c2)nc1C(=O)Nc1ccc(N2CCCC2)cc1` [Compound I-26, 3-amino-6-(3-(morpholine-4-carbonyl)phenyl)-N-(4-(pyrrolidin-1-yl)phenyl)pyrazine-2-carboxamide], for which the inhibition constant Ki was 100 to 5000 nM.

In the case of `CCS(=O)(=O)c1ccc(-c2cnc(N)c(-c3nnc(-c4ccccc4)o3)n2)cc1` [IA-149, 5-(4-ethylsulfonylphenyl)-3-(5-phenyl-1,3,4-oxadiazol-2-yl)pyrazin-2-amine], the inhibitory constant (Ki) was no more than 10 nM.

Consider `Nc1ncc(-c2ccc(C(=O)NCCN3CCCC3)cc2)nc1-c1nc2ccccc2[nH]1` [Compound I-152, 4-(5-amino-6-(1H-benzo[d]imidazol-2-yl)pyrazin-2-yl)-N-(2-(pyrrolidin-1-yl)ethyl)benzamide], for which the Ki lay within 10 to 100 nM.

With `CC(=O)c1cccc(-c2cnc(N)c(C(=O)Nc3ccccc3)n2)c1` [Compound I-22, 6-(3-acetylphenyl)-3-amino-N-phenylpyrazine-2-carboxamide], the Ki lay in the range of 10 to 100 nM.

`CN(C)C(=O)c1ccc(-c2cnc(N)c(-c3nnc(-c4ccccc4O)o3)n2)cc1` [IA-215, 4-[5-amino-6-[5-(2-hydroxyphenyl)-1,3,4-oxadiazol-2-yl]pyrazin-2-yl]-N,N-dimethyl-benzamide]: the Ki is no more than 10 nM.

Regarding `Nc1ncc(-c2cccnc2)nc1C(=O)Nc1ccc2[nH]ccc2c1` [Compound V-17], the Ki fell in the range of 10 to 100 nM.

For `Nc1ncc(-c2ccn[nH]2)nc1C(=O)Nc1ccccc1` [Compound I-31, 3-amino-N-phenyl-6-(1H-pyrazol-5-yl)pyrazine-2-carboxamide], the inhibition constant (Ki) fell in the range of 10 to 100 nM.

Regarding `CCc1ccccc1-c1nnc(-c2nc(-c3ccc(C(=O)N(C)C)cc3)cnc2N)o1` [IA-155, 4-(5-amino-6-(5-(2-ethylphenyl)-1,3,4-oxadiazol-2-yl)pyrazin-2-yl)-N,N-dimethylbenzamide], the inhibition constant Ki lay in the range of 10 to 100 nM.

With `Cc1cc(NC(=O)c2nc(-c3ccc(S(C)(=O)=O)cc3)cnc2N)ccn1` [VII-2], the inhibition constant Ki was 10 to 100 nM.

Turning to `CC(C)S(=O)(=O)c1ccc(-c2cnc(N)c(-c3nnc(-c4ccc(CN)s4)o3)n2)cc1` [IA-173, 3-[5-[5-(aminomethyl)-2-thienyl]-1,3,4-oxadiazol-2-yl]-5-(4-isopropylsulfonylphenyl)pyrazin-2-amine], the Ki was no more than 10 nM.

In the case of `NCc1ccc(-c2nnc(-c3nc(-c4cccnc4)cnc3N)[nH]2)cc1` [Compound I-139, 3-(5-(4-(aminomethyl)phenyl)-4H-1,2,4-triazol-3-yl)-5-(pyridin-3-yl)pyrazin-2-amine], the Ki lay in the range of 10 to 100 nM.

Consider `CC(C)Sc1ccccc1-c1cnc(N)c(-c2nnc(-c3ccccc3)o2)n1` [IA-229, 5-(2-isopropylsulfanylphenyl)-3-(5-phenyl-1,3,4-oxadiazol-2-yl)pyrazin-2-amine], for which the Ki was in the range of 100 to 5000 nM.

Regarding `CNCc1ccc(-c2nnc(-c3nc(-c4ccc(S(=O)(=O)CCN(C)C)cc4)cnc3N)o2)cc1` [IA-289, 5-[4-(2-dimethylaminoethylsulfonyl)phenyl]-3-[5-[4-(methylaminomethyl)phenyl]-1,3,4-oxadiazol-2-yl]pyrazin-2-amine], the Ki was no more than 10 nM.

Take `Cc1ccc2nc(-c3nc(-c4ccc(C(=O)N5CCCN(C)CC5)cc4)cnc3N)[nH]c2c1` [Compound I-151, (4-(5-amino-6-(6-methyl-1H-benzo[d]imidazol-2-yl)pyrazin-2-yl)phenyl)(4-methyl-1,4-diazepan-1-yl)methanone]: the Ki is 10 to 100 nM.
